Reference: US20260337153A1, “IONIZABLE AMINE LIPIDS” (Intellia Therapeutics, Inc., priority 2023, published 2026)
Values joined by “and” are separate entries in the source; they are usually repeats but may differ in a detail not shown here. Equal values may be shown once.

Key:
[1] = LNP average particle size and polydispersity by dynamic light scattering; type: physicochemical; conditions: sgRNA:mRNA 1:2
Experimental: Dynamic Light Scattering (“DLS”) is used to characterize the polydispersity index (“pdi” or “PDI”) and size of the LNPs of the present disclosure. DLS measures the scattering of light that results from subjecting a sample to a light source. PDI, as determined from DLS measurements, represents the distribution of particle size (around the mean particle size) in a population, with a perfectly uniform population having a PDI of zero.
LNP compositions are analyzed for average particle size, polydispersity index (pdi), total RNA content, encapsulation efficiency of RNA, and zeta potential. LNP compositions may be further characterized by lipid analysis, AF4-MALS, NTA, and/or cryo-EM.
Average particle size and polydispersity are measured by dynamic light scattering (DLS) using a Malvern Zetasizer DLS instrument. LNP samples were diluted with PBS buffer prior to being measured by DLS. Z-average diameter (“Z-avg”) which is an intensity-based measurement of average particle size was reported along with number average diameter (“number mean”) and PDI. A Malvern Zetasizer instrument is also used to measure the zeta potential of the LNP. Samples are diluted 1:17 (50 μL into 800 μL) in 0.1×PBS, pH 7.4 prior to measurement.
In vivo editing efficiency for materials delivered with formulations including various amine lipid (or ionizable lipid) compounds in Experiments 1 through 14 as described in Tables 3 and 4 was assessed. Editing was measured using G000534 (SEQ ID NO: 5) which targets the rat TTR gene. Lipids described above were assessed for efficacy through in vivo editing experiments. LNPs were formulated at a 1:2 w/w ratio of sgRNA (SEQ ID NO: 5) and Cas9 mRNA (SEQ ID NO: 3). In Experiments 1 through 13, lipid components of the LNP are formulated in a molar ratio of 50% ionizable lipid, 38% cholesterol, 9% DSPC, and 3% PEG2K-DMG. In Experiment 14, lipid components of the LNP are formulated in a molar ratio of 50% ionizable lipid, 38% cholesterol, 9% DSPC, and 3% C13 Ether. The final LNPs used in different in vivo editing experiments were characterized to determine the encapsulation efficiency (% E), polydispersity index (PDI), and average particle size (Z-avg and number mean) according to the analytical methods provided above. The pKa values of each of the following ionizable lipids were also measured to be in the range of about 5.8 to about 7.6.
In vivo editing efficiency for materials delivered with formulations including various combinations of amine lipid (or ionizable lipid) and PEG lipid compounds was assessed as described in Tables 5 and 6. Editing was measured using G000534 (SEQ ID NO: 5) which targets the rat TTR gene. Lipids described above were assessed for efficacy through in vivo editing experiments. LNPs were formulated at a 1:2 w/w ratio of sgRNA (SEQ ID NO: 5) and Cas9 mRNA (SEQ ID NO:3). Lipid components of the LNP are formulated in a molar ratio of 50% ionizable lipid, 38% cholesterol, 9% DSPC, and 3% of various PEG lipids (e.g., PEG2K-DMG, C13 Ether, C14 Ether). The final LNPs used in different in vivo editing experiments were characterized to determine the encapsulation efficiency (% E), polydispersity index (PDI), and average particle size (Z-avg and number mean) according to the analytical methods provided above. The pKa values of each of the following ionizable lipids were also measured to be in the range of about 5.8 to about 7.6.
In vivo editing efficiency for materials delivered with formulations including various amine lipid (or ionizable lipid) compounds as described in Tables 7 and 8 was assessed. Editing was measured using G000534 (SEQ ID NO: 5) which targets the rat TTR gene. Lipids described above were assessed for efficacy through in vivo editing experiments. LNPs were formulated at a 1:2 w/w ratio of sgRNA (SEQ ID NO: 5) and Cas9 mRNA (SEQ ID NO: 3). Lipid components of the LNP were formulated in a molar ratio of 50% ionizable lipid, 38% cholesterol, 9% DSPC, and 3% C13 Ether. […]

[2] = pKa of unformulated amine lipid by TNS fluorescence; type: physicochemical; conditions: sodium phosphate buffer; Table 2; unformulated amine lipid, TNS; read-out: Lipid pKa
Experimental: The pKa of each amine lipid was determined according to the method in Jayaraman, et al. (Angew Chem Int Ed Engl 51(34), 2012, 8529-8533) with the following adaptations. The pKa was determined for unformulated amine lipid in ethanol. Lipid stock solutions (2.94 mM) were diluted into Sodium Phosphate Buffers (0.1 M, Boston Bioproducts) of different pH (pH-range: 4.5-9.0) yielding a final lipid concentration of approx. 100 μM. The test samples were supplemented with TNS {6-(p-Toluidino)-2-naphthalenesulfonic acid sodium salt}, incubated and the fluorescence intensity was measured using excitation and emission wavelengths of 321 nm and 448 nm, respectively. The recorded data were normalized and the respective pKa values were derived from sigmoidal fitting.

[3] = Table 3, Experiments 1-13, LNP 50% ionizable lipid, 38% cholesterol, 9% DSPC, 3% PEG2K-DMG
[4] = Table 3, Experiment 14, LNP with 3% C13 Ether
[5] = LNP with 50% ionizable lipid, 38% cholesterol, 9% DSPC, 3% C13 Ether (LNP #1, Compound 53: 3% PEG2K-DMG instead)

Structure (SMILES): CCCCCCCCOC(CCC(=O)OCC(COC(=O)CCC(OCCCCCCCC)OCCCCCCCC)COC(=O)OCCCN(CC)CC)OCCCCCCCC [Compound 1, 2-((((3-(diethylamino)propoxy)carbonyl)oxy)methyl)propane-1,3-diyl bis(4,4-bis(octyloxy)butanoate)]
- Number mean [1, 3]: 70 nm
- PDI [1, 3]: 0.06
- Z-avg [1, 3]: 80 nm

Structure (SMILES): CCCCCCCCC(CCCCCCCC)OC(=O)CCCC(=O)OCC(COC(=O)CCCC(=O)OC(CCCCCCCC)CCCCCCCC)COC(=O)OCCCN(CC)CC [Compound 2, O,O′-(2-((((3-(diethylamino)propoxy)carbonyl)oxy)methyl)propane-1,3-diyl) di(heptadecan-9-yl) diglutarate]
- pKa [2]: 6.23
- Number mean [1, 4]: 74 nm
- PDI [1, 4]: 0.017
- Z-avg [1, 4]: 80 nm
- Number mean [1, 3]: 65 nm and 72 nm
- PDI [1, 3]: 0.01
- Z-avg [1, 3]: 79 nm and 76 nm

Structure (SMILES): CCCCCCCCC(CCCCCCCC)OC(=O)CCCCCC(=O)OCC(COC(=O)CCCCCC(=O)OC(CCCCCCCC)CCCCCCCC)COC(=O)OCCCN(CC)CC [Compound 3, O′1,O1-(2-((((3-(diethylamino)propoxy)carbonyl)oxy)methyl)propane-1,3-diyl) 7,7′-di(heptadecan-9-yl) di(heptanedioate)]
- Number mean [1, 3]: 72 nm
- PDI [1, 3]: 0.004
- Z-avg [1, 3]: 86 nm

Structure (SMILES): CCCCC/C=C\C/C=C\CCCCCCCC(=O)OCC(COC(=O)CCCCCC(=O)OCC(CCCC)CCCCCC)COC(=O)OCCCN(CC)CC (centres unmarked) [Compound 4, 1-(2-butyloctyl) 7-(3-(((3-(diethylamino)propoxy)carbonyl)oxy)-2-((((9Z,12Z)-octadeca-9,12-dienoyl)oxy)methyl)propyl) heptanedioate]
- pKa [2]: 6.05
- Number mean [1, 3]: 78 nm and 83 nm
- PDI [1, 3]: 0.02 and 0.04
- Z-avg [1, 3]: 95 nm and 91 nm

Structure (SMILES): CCCCCCC(CCCC)COC(=O)CCCCCC(=O)OCC(COC(=O)CCCCCC(=O)OCC(CCCC)CCCCCC)COC(=O)OCCCN(CC)CC (centres unmarked) [Compound 5, 7,7′-bis(2-butyloctyl) O′1,O1-(2-((((3-(diethylamino)propoxy)carbonyl)oxy)methyl)propane-1,3-diyl) di(heptanedioate)]
- Number mean [1, 3]: 90 nm
- PDI [1, 3]: 0.01
- Z-avg [1, 3]: 109 nm

Structure (SMILES): CCCCCCCCC(CCCCCCCC)OC(=O)CCCC(=O)OCC(COC(=O)CCCC(=O)OC(CCCCCCCC)CCCCCCCC)COC(=O)NCCN(CC)CC [Compound 6, O,O′-(2-((((2-(diethylamino)ethyl)carbamoyl)oxy)methyl)propane-1,3-diyl) di(heptadecan-9-yl) diglutarate]
- pKa [2]: 6.35
- Number mean (average particle size) [1, 5]: 67 nm
- PDI (polydispersity index) [1, 5]: 0.002
- Z-avg (average particle size) [1, 5]: 81 nm
- Number mean [1, 4]: 68 nm
- PDI [1, 4]: 0.02
- Z-avg [1, 4]: 73 nm
- Number mean [1, 3]: 68 nm and 75 nm
- PDI [1, 3]: 0.014 and 0.02
- Z-avg [1, 3]: 75 nm and 79 nm
- Number mean ([1]; Table 5, PEG lipid C13 Ether): 72 nm
- PDI ([1]; Table 5, PEG lipid C13 Ether): 0.01
- Z-avg ([1]; Table 5, PEG lipid C13 Ether): 79 nm
- Number mean ([1]; Table 5, PEG lipid C14 Ether): 81 nm
- PDI ([1]; Table 5, PEG lipid C14 Ether): 0.01
- Z-avg ([1]; Table 5, PEG lipid C14 Ether): 86 nm
- Number mean ([1]; Table 5, PEG lipid PEG2K-DMG): 69 nm
- PDI ([1]; Table 5, PEG lipid PEG2K-DMG): 0.04
- Z-avg ([1]; Table 5, PEG lipid PEG2K-DMG): 78 nm
- Number mean ([1]; Table 7, LNP with 3% C13 Ether): 71 nm
- PDI ([1]; Table 7, LNP with 3% C13 Ether): 0.01
- Z-avg ([1]; Table 7, LNP with 3% C13 Ether): 78 nm

Structure (SMILES): CCCCC/C=C\C/C=C\CCCCCCCC(=O)OCC(CCCCCCCCC(=O)OCC(CCCC)CCCCCC)COC(=O)OCCCN(CC)CC (centres unmarked) [Compound 7, 11-((2-butyloctyl)oxy)-2-((((3-(diethylamino)propoxy)carbonyl)oxy)methyl)-11-oxoundecyl (9Z,12Z)-octadeca-9,12-dienoate]
- pKa [2]: 6.09
- Number mean [1, 3]: 68 nm
- PDI [1, 3]: 0.03
- Z-avg [1, 3]: 74 nm

Structure (SMILES): CCCCCCCCC(CCCCCCCC)OC(=O)CCCCCCC(COC(=O)CCCC(=O)OC(CCCCCCCC)CCCCCCCC)COC(=O)OCCCN(CC)CC (centres unmarked) [Compound 8, 2-((((3-(diethylamino)propoxy)carbonyl)oxy)methyl)-9-(heptadecan-9-yloxy)-9-oxononyl heptadecan-9-yl glutarate]
- pKa [2]: 5.85
- Number mean [1, 3]: 64 nm
- PDI [1, 3]: 0.03
- Z-avg [1, 3]: 69 nm

Structure (SMILES): CCCCCCCCC(CCCCCCCC)OC(=O)CCCC(=O)OCC(C)(COC(=O)CCCC(=O)OC(CCCCCCCC)CCCCCCCC)COC(=O)NCCN(CC)CC [Compound 36, O,O′-(2-((((2-(diethylamino)ethyl)carbamoyl)oxy)methyl)-2-methylpropane-1,3-diyl) di(heptadecan-9-yl) diglutarate]
- Number mean [1, 3]: 87 nm
- PDI [1, 3]: 0.056
- Z-avg [1, 3]: 103 nm

Structure (SMILES): CCCCCCCCCCCC(=O)OCC(COC(=O)CCC(OCCCCCCCC)OCCCCCCCC)COC(=O)OCCCN(CC)CC (centres unmarked) [Compound 41, 3-((4,4-bis(octyloxy)butanoyl)oxy)-2-((((3-(diethylamino)propoxy)carbonyl)oxy)methyl)propyl Dodecanoate]
- Number mean [1, 3]: 75 nm
- PDI [1, 3]: 0.05
- Z-avg [1, 3]: 83 nm

Structure (SMILES): CCCCCCCCOC(CCC(=O)OCC(COC(=O)CC(CCCC)CCCCCC)COC(=O)OCCCN(CC)CC)OCCCCCCCC (centres unmarked) [Compound 43, 3-((4,4-bis(octyloxy)butanoyl)oxy)-2-((((3-(diethylamino)propoxy)carbonyl)oxy)methyl)propyl 3-butylnonanoate]
- Number mean [1, 3]: 75 nm
- PDI [1, 3]: 0.04
- Z-avg [1, 3]: 85 nm

Structure (SMILES): CCCCCCCCOC(CCC(=O)OCC(COC(=O)NCCN(CC)CC)COC(=O)C(CCCC)CCCCCC)OCCCCCCCC (centres unmarked) [Compound 48, 3-((4,4-bis(octyloxy)butanoyl)oxy)-2-((((2-(diethylamino)ethyl)carbamoyl)oxy)methyl)propyl 2-butyloctanoate]
- Number mean [1, 3]: 81 nm
- PDI [1, 3]: 0.02
- Z-avg [1, 3]: 87 nm

Structure (SMILES): CCCCCCCCC(CCCCCCCC)CC(=O)OCCC(=O)OCC(COC(=O)CCCC(=O)OC(CCCCCCCC)CCCCCCCC)COC(=O)NCCN(CC)CC (centres unmarked) [Compound 63, 3-(((2-(diethylamino)ethyl)carbamoyl)oxy)-2-(((3-((3-octylundecanoyl)oxy)propanoyl)oxy)methyl)propyl heptadecan-9-yl Glutarate]
- Number mean ([1]; Table 7, LNP with 3% C13 Ether): 73 nm
- PDI ([1]; Table 7, LNP with 3% C13 Ether): 0.02
- Z-avg ([1]; Table 7, LNP with 3% C13 Ether): 80 nm
